In PubChem BioAssay (NCI):
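A five-concentration, 48-hour dose response in 96-well plates underlies each endpoint, interpolated linearly between surrounding concentrations. The concentration for full growth arrest is given as TGI.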

Assays:
Test in all cases: NCI anticancer screen, dose series, 48 h
MDA-N = test system: MDA-N
CAKI-1 renal = test system: CAKI-1 renal
NCI/ADR-RES ovarian = test system: NCI/ADR-RES ovarian
SK-MEL-28 melanoma = test system: SK-MEL-28 melanoma
SF-268 CNS = test system: SF-268 CNS
RXF 393 renal = test system: RXF 393 renal
MDA-MB-231 breast = test system: MDA-MB-231 breast
RPMI-8226 leukemia = test system: RPMI-8226 leukemia
HOP-62 NSCLC = test system: HOP-62 NSCLC
SK-MEL-5 melanoma = test system: SK-MEL-5 melanoma
T-47D breast = test system: T-47D breast
IGROV1 ovarian = test system: IGROV1 ovarian
SR leukemia = test system: SR leukemia
COLO 205 colon = test system: COLO 205 colon
OVCAR-5 ovarian = test system: OVCAR-5 ovarian
TK-10 renal = test system: TK-10 renal
DU-145 prostate = test system: DU-145 prostate
ACHN renal = test system: ACHN renal
UACC-257 melanoma = test system: UACC-257 melanoma
MOLT-4 leukemia = test system: MOLT-4 leukemia
UO-31 renal = test system: UO-31 renal
KM12 colon = test system: KM12 colon
MDA-MB-435 = test system: MDA-MB-435
NCI-H23 lung = test system: NCI-H23 lung
786-0 renal = test system: 786-0 renal
HOP-92 NSCLC = test system: HOP-92 NSCLC
NCI-H460 lung = test system: NCI-H460 lung
NCI-H226 lung = test system: NCI-H226 lung
NCI-H522 lung = test system: NCI-H522 lung
SNB-19 CNS = test system: SNB-19 CNS
MALME-3M melanoma = test system: MALME-3M melanoma
K-562 leukemia = test system: K-562 leukemia
SW-620 colon = test system: SW-620 colon
U251 CNS = test system: U251 CNS
MCF7 breast = test system: MCF7 breast
SK-OV-3 ovarian = test system: SK-OV-3 ovarian
A498 renal = test system: A498 renal
SNB-75 CNS = test system: SNB-75 CNS
EKVX NSCLC = test system: EKVX NSCLC
CCRF-CEM leukemia = test system: CCRF-CEM leukemia
OVCAR-3 ovarian = test system: OVCAR-3 ovarian
LOX IMVI melanoma = test system: LOX IMVI melanoma
HL-60(TB) leukemia = test system: HL-60(TB) leukemia
SK-MEL-2 melanoma = test system: SK-MEL-2 melanoma
A549 NSCLC = test system: A549 NSCLC
HS 578T breast = test system: HS 578T breast
SF-295 CNS = test system: SF-295 CNS
UACC-62 melanoma = test system: UACC-62 melanoma
PC-3 prostate = test system: PC-3 prostate
HT29 colon = test system: HT29 colon
OVCAR-4 ovarian = test system: OVCAR-4 ovarian
M14 melanoma = test system: M14 melanoma
HCT-15 colon = test system: HCT-15 colon
OVCAR-8 ovarian = test system: OVCAR-8 ovarian
HCC-2998 colon = test system: HCC-2998 colon
SN12C renal = test system: SN12C renal
HCT-116 colon = test system: HCT-116 colon
SF-539 CNS = test system: SF-539 CNS

**Q.** With C[C@@H](Br)[C@@H]1CC[C@H]2c3[nH]c4ccccc4c3CCN2C1 as the compound, how does the TGI (MDA-N) read?
**A.** 44 µM

**Q.** What about the TGI (CAKI-1 renal) of the same compound?
**A.** 52.4 µM

**Q.** What about the TGI (NCI/ADR-RES ovarian) of the same compound?
**A.** 47.3 µM

**Q.** What about the TGI (SK-MEL-28 melanoma) of the same compound?
**A.** > 100 µM

**Q.** And the TGI (SF-268 CNS)?
**A.** > 100 µM

**Q.** And the TGI (RXF 393 renal)?
**A.** 61.5 µM

**Q.** What about the TGI (MDA-MB-231 breast) of the same compound?
**A.** 41.1 µM

**Q.** What about the TGI (RPMI-8226 leukemia) of the same compound?
**A.** 37.4 µM

**Q.** What about the TGI (HOP-62 NSCLC) of the same compound?
**A.** 40.5 µM

**Q.** And the TGI (SK-MEL-5 melanoma)?
**A.** 29.4 µM

**Q.** And the TGI (T-47D breast)?
**A.** 61.2 µM

**Q.** What about the TGI (IGROV1 ovarian) of the same compound?
**A.** 77.8 µM

**Q.** What about the TGI (SR leukemia) of the same compound?
**A.** 38.3 µM

**Q.** What about the TGI (COLO 205 colon) of the same compound?
**A.** 26.3 µM

**Q.** And the TGI (OVCAR-5 ovarian)?
**A.** > 100 µM

**Q.** And the TGI (TK-10 renal)?
**A.** > 100 µM

**Q.** What about the TGI (DU-145 prostate) of the same compound?
**A.** > 100 µM

**Q.** And the TGI (ACHN renal)?
**A.** > 100 µM

**Q.** What about the TGI (UACC-257 melanoma) of the same compound?
**A.** > 100 µM

**Q.** What about the TGI (MOLT-4 leukemia) of the same compound?
**A.** 49.7 µM

**Q.** What about the TGI (UO-31 renal) of the same compound?
**A.** > 100 µM

**Q.** And the TGI (KM12 colon)?
**A.** 28.5 µM

**Q.** And the TGI (MDA-MB-435)?
**A.** 45.6 µM

**Q.** And the TGI (NCI-H23 lung)?
**A.** 67.1 µM

**Q.** And the TGI (786-0 renal)?
**A.** 36.6 µM

**Q.** And the TGI (HOP-92 NSCLC)?
**A.** 65.2 µM

**Q.** And the TGI (NCI-H460 lung)?
**A.** 70.1 µM

**Q.** And the TGI (NCI-H226 lung)?
**A.** > 100 µM

**Q.** And the TGI (NCI-H522 lung)?
**A.** 29.5 µM

**Q.** And the TGI (SNB-19 CNS)?
**A.** 43.9 µM

**Q.** What about the TGI (MALME-3M melanoma) of the same compound?
**A.** 40.3 µM

**Q.** And the TGI (K-562 leukemia)?
**A.** 38.6 µM

**Q.** What about the TGI (SW-620 colon) of the same compound?
**A.** 70.8 µM

**Q.** And the TGI (U251 CNS)?
**A.** 55.8 µM

**Q.** What about the TGI (MCF7 breast) of the same compound?
**A.** 77.6 µM

**Q.** What about the TGI (SK-OV-3 ovarian) of the same compound?
**A.** 87.2 µM

**Q.** What about the TGI (A498 renal) of the same compound?
**A.** > 100 µM

**Q.** And the TGI (SNB-75 CNS)?
**A.** 48.3 µM

**Q.** And the TGI (EKVX NSCLC)?
**A.** > 100 µM

**Q.** What about the TGI (CCRF-CEM leukemia) of the same compound?
**A.** 54.8 µM

**Q.** And the TGI (OVCAR-3 ovarian)?
**A.** 42.4 µM

**Q.** What about the TGI (LOX IMVI melanoma) of the same compound?
**A.** 32.9 µM

**Q.** What about the TGI (HL-60(TB) leukemia) of the same compound?
**A.** 39.5 µM

**Q.** What about the TGI (SK-MEL-2 melanoma) of the same compound?
**A.** 50.6 µM

**Q.** And the TGI (A549 NSCLC)?
**A.** > 100 µM

**Q.** And the TGI (HS 578T breast)?
**A.** 33.9 µM

**Q.** And the TGI (SF-295 CNS)?
**A.** 47.8 µM

**Q.** And the TGI (UACC-62 melanoma)?
**A.** 33.5 µM

**Q.** What about the TGI (PC-3 prostate) of the same compound?
**A.** 75.4 µM

**Q.** And the TGI (HT29 colon)?
**A.** 67.8 µM

**Q.** What about the TGI (OVCAR-4 ovarian) of the same compound?
**A.** > 100 µM

**Q.** And the TGI (M14 melanoma)?
**A.** 44 µM

**Q.** What about the TGI (HCT-15 colon) of the same compound?
**A.** 48.1 µM

**Q.** And the TGI (OVCAR-8 ovarian)?
**A.** > 100 µM

**Q.** And the TGI (HCC-2998 colon)?
**A.** 31.3 µM

**Q.** Which results are given for Oc1ccccc1/C=N/N1C(=S)N(c2ccccc2)C(=Nc2ccccc2)C1=Nc1ccccc1?
**A.** TGI (MDA-N): > 52.1 µM; TGI (CAKI-1 renal): 29.6 µM; TGI (NCI/ADR-RES ovarian): 41 µM; TGI (SK-MEL-28 melanoma): 80.5 µM; TGI (SF-268 CNS): 26.7 µM; TGI (RXF 393 renal): 18.1 µM; TGI (MDA-MB-231 breast): 24.1 µM; TGI (RPMI-8226 leukemia): > 72.8 µM; TGI (HOP-62 NSCLC): 22.6 µM; TGI (SK-MEL-5 melanoma): 40.9 µM; TGI (T-47D breast): 75.6 µM; TGI (IGROV1 ovarian): 30.8 µM; TGI (SN12C renal): 28.2 µM; TGI (SR leukemia): > 81.2 µM; TGI (COLO 205 colon): 11.3 µM; TGI (OVCAR-5 ovarian): > 52.4 µM; TGI (TK-10 renal): 20.8 µM; TGI (HCT-116 colon): 26.5 µM; TGI (DU-145 prostate): > 68.3 µM; TGI (ACHN renal): 17.5 µM; TGI (UACC-257 melanoma): > 68 µM; TGI (MOLT-4 leukemia): > 89.5 µM; TGI (UO-31 renal): 33.1 µM; TGI (KM12 colon): > 100 µM; TGI (MDA-MB-435): > 60 µM; TGI (NCI-H23 lung): 24.9 µM; TGI (786-0 renal): 14.1 µM; TGI (HOP-92 NSCLC): 16.3 µM; TGI (NCI-H460 lung): 32.4 µM; TGI (NCI-H226 lung): 26.4 µM; TGI (NCI-H522 lung): 12.6 µM; TGI (SNB-19 CNS): 20.7 µM; TGI (MALME-3M melanoma): > 54.6 µM; TGI (K-562 leukemia): > 64.7 µM; TGI (SW-620 colon): > 54.1 µM; TGI (U251 CNS): 14.2 µM; TGI (MCF7 breast): > 100 µM; TGI (SK-OV-3 ovarian): 30.7 µM; TGI (A498 renal): 17.2 µM; TGI (SNB-75 CNS): 11.4 µM; TGI (EKVX NSCLC): 32.2 µM; TGI (CCRF-CEM leukemia): > 62.9 µM; TGI (OVCAR-3 ovarian): 28.2 µM; TGI (LOX IMVI melanoma): 36.2 µM; TGI (HL-60(TB) leukemia): > 86.1 µM; TGI (SK-MEL-2 melanoma): 42.9 µM; TGI (A549 NSCLC): 37.7 µM; TGI (HS 578T breast): 37.7 µM; TGI (SF-295 CNS): 23.2 µM; TGI (UACC-62 melanoma): 29.3 µM; TGI (PC-3 prostate): 47.2 µM; TGI (HT29 colon): 12.7 µM; TGI (OVCAR-4 ovarian): 15.2 µM; TGI (SF-539 CNS): 17.9 µM; TGI (M14 melanoma): 28.7 µM; TGI (HCT-15 colon): > 100 µM; TGI (OVCAR-8 ovarian): 18.2 µM; TGI (HCC-2998 colon): > 78.2 µM
